Reference: ChEMBL document CHEMBL1201862, “PubChem BioAssay data set” (2004)
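48-hour exposure; five concentrations; linearly interpolated endpoints. The concentration for 50% growth inhibition is given as GI50.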 Activity calls are given as the source filed them. Rule as the data show it: active = GI50 up to about 1.1 µM and inactive = higher.

Tests used:
Test in all cases: NCI-60 cell line screen, 48 h
786-0 = test system: 786-0
A498 = test system: A498
A549 = test system: A549
ACHN = test system: ACHN
BT-549 = test system: BT-549
CAKI-1 = test system: CAKI-1
CCRF-CEM = test system: CCRF-CEM
COLO 205 = test system: COLO 205
DU-145 = test system: DU-145
EKVX = test system: EKVX
HCC 2998 = test system: HCC 2998
HCT-116 = test system: HCT-116
HCT-15 = test system: HCT-15
HL-60 = test system: HL-60
HOP-62 = test system: HOP-62
HOP-92 = test system: HOP-92
HT-29 = test system: HT-29
Hs-578T = test system: Hs-578T
IGROV-1 = test system: IGROV-1
K562 = test system: K562
KM12 = test system: KM12
LOX IMVI = test system: LOX IMVI
M14 = test system: M14
MCF7 = test system: MCF7
MDA-MB-231 = test system: MDA-MB-231
MDA-MB-435 = test system: MDA-MB-435
MDA-N = test system: MDA-N
MOLT-4 = test system: MOLT-4
Malme-3M = test system: Malme-3M
NCI-H226 = test system: NCI-H226
NCI-H23 = test system: NCI-H23
NCI-H460 = test system: NCI-H460
NCI-H522 = test system: NCI-H522
NCI/ADR-RES = test system: NCI/ADR-RES
OVCAR-3 = test system: OVCAR-3
OVCAR-4 = test system: OVCAR-4
OVCAR-5 = test system: OVCAR-5
OVCAR-8 = test system: OVCAR-8
PC-3 = test system: PC-3
RPMI-8226 = test system: RPMI-8226
RXF 393 = test system: RXF 393
SF-268 = test system: SF-268
SF-295 = test system: SF-295
SF-539 = test system: SF-539
SK-MEL-28 = test system: SK-MEL-28
SK-MEL-2 = test system: SK-MEL-2
SK-MEL-5 = test system: SK-MEL-5
SK-OV-3 = test system: SK-OV-3
SN12C = test system: SN12C
SNB-19 = test system: SNB-19
SNB-75 = test system: SNB-75
SR = test system: SR
SW-620 = test system: SW-620
T47D = test system: T47D
TK-10 = test system: TK-10
U-251 = test system: U-251
UACC-257 = test system: UACC-257
UACC-62 = test system: UACC-62
UO-31 = test system: UO-31

Structure (SMILES): O=C1C(Cl)=C(N2CCN(c3ccccn3)CC2)C(=O)c2ncccc21
- GI50 (786-0): 1.63 µM (inactive)
- GI50 (A498): 11.3 µM (inactive)
- GI50 (A549): 6.56 µM (inactive)
- GI50 (ACHN): 2.33 µM (inactive)
- GI50 (BT-549): 1.79 µM (inactive)
- GI50 (CAKI-1): 2.13 µM (inactive)
- GI50 (CCRF-CEM): 0.745 µM (active)
- GI50 (COLO 205): 1.84 µM (inactive)
- GI50 (DU-145): 11.8 µM (inactive)
- GI50 (EKVX): 11.9 µM (inactive)
- GI50 (HCC 2998): 16.7 µM (inactive)
- GI50 (HCT-116): 1.74 µM (inactive)
- GI50 (HCT-15): 1660 nM
- GI50 (HL-60): 0.668 µM (active)
- GI50 (HOP-62): 11.9 µM (inactive)
- GI50 (HOP-92): 1.88 µM (inactive)
- GI50 (HT-29): 3.13 µM (inactive)
- GI50 (Hs-578T): 2.49 µM (inactive)
- GI50 (IGROV-1): 2.64 µM (inactive)
- GI50 (K562): 1.33 µM (inactive)
- GI50 (KM12): 3.53 µM (inactive)
- GI50 (LOX IMVI): 1.61 µM (inactive)
- GI50 (M14): 1.6 µM (inactive)
- GI50 (MCF7): 1.67 µM (inactive)
- GI50 (MDA-MB-231): 1.69 µM (inactive)
- GI50 (MDA-MB-435): 1.69 µM (inactive)
- GI50 (MDA-N): 1.76 µM (inactive)
- GI50 (MOLT-4): 1.38 µM (inactive)
- GI50 (Malme-3M): 1.75 µM (inactive)
- GI50 (NCI-H226): 5.68 µM (inactive)
- GI50 (NCI-H23): 1.89 µM (inactive)
- GI50 (NCI-H460): 3.05 µM (inactive)
- GI50 (NCI-H522): 1.67 µM (inactive)
- GI50 (NCI/ADR-RES): 2.33 µM (inactive)
- GI50 (OVCAR-3): 1.69 µM (inactive)
- GI50 (OVCAR-4): 1.87 µM (inactive)
- GI50 (OVCAR-5): 7.87 µM (inactive)
- GI50 (OVCAR-8): 1.32 µM (inactive)
- GI50 (PC-3): 2.8 µM (inactive)
- GI50 (RPMI-8226): 2 µM (inactive)
- GI50 (RXF 393): 2.17 µM (inactive)
- GI50 (SF-268): 2.74 µM (inactive)
- GI50 (SF-295): 5.69 µM (inactive)
- GI50 (SF-539): 2.05 µM (inactive)
- GI50 (SK-MEL-28): 2.24 µM (inactive)
- GI50 (SK-MEL-2): 1.87 µM (inactive)
- GI50 (SK-MEL-5): 2 µM (inactive)
- GI50 (SK-OV-3): 7 µM (inactive)
- GI50 (SN12C): 2.61 µM (inactive)
- GI50 (SNB-19): 12.5 µM (inactive)
- GI50 (SNB-75): 6.21 µM (inactive)
- GI50 (SR): 0.757 µM (active)
- GI50 (SW-620): 2.03 µM (inactive)
- GI50 (T47D): 1.81 µM (inactive)
- GI50 (TK-10): 3.97 µM (inactive)
- GI50 (U-251): 4.38 µM (inactive)
- GI50 (UACC-257): 1.7 µM (inactive)
- GI50 (UACC-62): 2.45 µM (inactive)
- GI50 (UO-31): 1.77 µM (inactive)

Structure (SMILES): C[C@H]1C=C2[C@@H]3CC(C)(C(=O)O)CC[C@]3(C)CC[C@]2(C)[C@]2(C)CC[C@H]3C(C)(C)[C@@H](OC(=O)c4cccc5c(=O)c6ccccc6[nH]c45)CC[C@]3(C)[C@@H]12 (stereo partly drawn)
- GI50 (786-0): > 100 µM (inactive)
- GI50 (A498): 79.1 µM (inactive)
- GI50 (A549): 57.5 µM (inactive)
- GI50 (ACHN): 67.3 µM (inactive)
- GI50 (BT-549): 47.8 µM (inactive)
- GI50 (CAKI-1): > 100 µM (inactive)
- GI50 (CCRF-CEM): 38 µM (inactive)
- GI50 (COLO 205): 58.1 µM (inactive)
- GI50 (DU-145): 67.5 µM (inactive)
- GI50 (EKVX): > 100 µM (inactive)
- GI50 (HCC 2998): 88.7 µM (inactive)
- GI50 (HCT-116): 89.7 µM (inactive)
- GI50 (HCT-15): > 100000 nM
- GI50 (HL-60): 38.4 µM (inactive)
- GI50 (HOP-62): > 100 µM (inactive)
- GI50 (HOP-92): > 100 µM (inactive)
- GI50 (HT-29): > 100 µM (inactive)
- GI50 (Hs-578T): > 100 µM (inactive)
- GI50 (IGROV-1): > 100 µM (inactive)
- GI50 (K562): 54.5 µM (inactive)
- GI50 (KM12): 37.2 µM (inactive)
- GI50 (LOX IMVI): 57 µM (inactive)
- GI50 (M14): 61 µM (inactive)
- GI50 (MCF7): 40 µM (inactive)
- GI50 (MDA-MB-231): > 100 µM (inactive)
- GI50 (MDA-MB-435): 41.8 µM (inactive)
- GI50 (MDA-N): 59.8 µM (inactive)
- GI50 (MOLT-4): > 100 µM (inactive)
- GI50 (Malme-3M): 66.8 µM (inactive)
- GI50 (NCI-H226): 24 µM (inactive)
- GI50 (NCI-H23): 44.3 µM (inactive)
- GI50 (NCI-H460): 41 µM (inactive)
- GI50 (NCI-H522): 28.8 µM (inactive)
- GI50 (NCI/ADR-RES): 54.6 µM (inactive)
- GI50 (OVCAR-3): > 100 µM (inactive)
- GI50 (OVCAR-4): 80.4 µM (inactive)
- GI50 (OVCAR-5): > 100 µM (inactive)
- GI50 (OVCAR-8): 41.7 µM (inactive)
- GI50 (PC-3): 38.2 µM (inactive)
- GI50 (RPMI-8226): 43 µM (inactive)
- GI50 (RXF 393): > 100 µM (inactive)
- GI50 (SF-268): > 100 µM (inactive)
- GI50 (SF-295): > 100 µM (inactive)
- GI50 (SF-539): > 100 µM (inactive)
- GI50 (SK-MEL-28): 53.3 µM (inactive)
- GI50 (SK-MEL-2): > 100 µM (inactive)
- GI50 (SK-MEL-5): 34.4 µM (inactive)
- GI50 (SK-OV-3): > 100 µM (inactive)
- GI50 (SN12C): > 100 µM (inactive)
- GI50 (SNB-19): > 100 µM (inactive)
- GI50 (SNB-75): > 100 µM (inactive)
- GI50 (SR): 66.8 µM (inactive)
- GI50 (SW-620): > 100 µM (inactive)
- GI50 (T47D): 26.9 µM (inactive)
- GI50 (TK-10): > 100 µM (inactive)
- GI50 (U-251): 81.5 µM (inactive)
- GI50 (UACC-257): 29.7 µM (inactive)
- GI50 (UACC-62): 43.3 µM (inactive)
- GI50 (UO-31): 70 µM (inactive)
